Assay results published in patent publication US9439424B2, “Synergistic weed control from applications of aminocyclopyrachlor and aminopyralid” (Dow AgroSciences LLC, priority 2012, dated 2016).
Where “and” joins values, the source holds several entries; their conditions need not be identical. Identical values can stand only once.

Test system: kochia or mock cypress (Kochia scoparia, KCHSC)
Assay: Field trial, post-emergence foliar application, weed control rating 0-100%
Assay type: in vivo
Source text: The (a) aminocyclopyrachlor or an agriculturally acceptable salt or ester thereof is mixed with or applied in combination with (b) aminopyralid or an agriculturally acceptable salt or ester thereof in an amount sufficient to induce a synergistic herbicidal effect. […] As described in the Herbicide Handbook of the Weed Science Society of America, Ninth Edition, 2007, p. 429, “‘synergism’ [is] an interaction of two or more factors such that the effect when combined is greater than the predicted effect based on the response to each factor applied separately.” Synergistic in the herbicide context can mean that the use of (a) and (b) as defined above results in an increased weed control effect compared to the weed control effects that are possible with the use of (a) or (b) alone. In some embodiments, the damage or injury to the undesired vegetation caused by the compositions and methods disclosed herein is evaluated using a scale from 0% to 100%, when compared with the untreated control vegetation, wherein 0% indicates no damage to the undesired vegetation and 100% indicates complete destruction of the undesired vegetation. […] 22 (1967)
In the Colby equation, the value E corresponds to the effect (plant damage or injury) that is to be expected if the activity of the individual compounds is additive. If the observed effect is higher than the value E calculated according to the Colby equation, then a synergistic effect is present according to the Colby equation.
Field trials were conducted with applications made to established grassland with naturally occurring weed populations. The target plants were treated with postemergence foliar applications when they were just emerged to the three-leaf stage and 0.6 centimeters (cm) (0.25 inches (in)) tall. All treatments were applied using a randomized complete block trial design, with 3 replications per treatment.
Treatments consisted of aminocyclopyrachlor in acid form and aminopyralid-triisopropanolammonium, each in water and applied alone or in combination. Spray solutions were prepared using an appropriate amount of dilution to form a 1.7 L aqueous spray solution with active ingredients in single and two way combinations. Formulated compounds were applied to the plant material with a backpack sprayer equipped with 8002 nozzles calibrated to deliver 13.5 gallon/acre (127 L/ha) at a spray height of 18-20 in (43-50 cm) above average plant canopy.
The treated plants were kochia or mock cypress (Kochia scoparia, KCHSC). The treated plots and control plots were rated blind at various intervals after application. Ratings were based on a scale of 0-100%, as discussed above, wherein 0% indicates no damage to the undesired vegetation and 100% indicates complete destruction of the undesired vegetation
Colby's equation was used to determine the herbicidal effects expected from the mixtures, as described above. The results were measured at 93 days and 183 days after the first application of the compositions. […] The herbicide tank mix combinations tested, application rates and ratios employed, plant species tested, and results are given below.

Structure (SMILES)	Mean % weed control (aminocyclopyrachlor alone 140 g ae/ha, 93 days after application)	Mean % weed control (aminocyclopyrachlor alone 140 g ae/ha, 183 days after application)	Mean % weed control (aminopyralid-triisopropanolammonium alone 70 g ae/ha, 93 days)	Mean % weed control (aminopyralid-triisopropanolammonium alone 70 g ae/ha, 183 days)	Mean % weed control (aminopyralid-triisopropanolammonium alone 120 g ae/ha, 93 days)	Mean % weed control (aminopyralid-triisopropanolammonium alone 120 g ae/ha, 183 days)
Nc1nc(C2CC2)nc(C(=O)O)c1Cl [Aminocyclopyrachlor, 6-amino-5-chloro-2-cyclopropylpyrimidine-4-carboxylic acid]	56.67% and 56.7%	45%	–	–	–	–
Nc1cc(Cl)nc(C(=O)O)c1Cl [Aminopyralid-triisopropanolammonium, aminopyralid-triisopropanolammonium]	–	–	30%	16.67%	20%	13.3%
